Source: ChEMBL document CHEMBL1136469, “Non-peptide alpha(v)beta(3) antagonists: identification of potent, chain-shortened RGD mimetics that incorporate a central pyrrolidinone constraint” (Bioorg Med Chem Lett, 2003)

How the values were obtained:
physchem = details: octanol/water
Description: Partition coefficient (logP)

Integrin alpha-V/beta-3 = Integrin alpha-V/beta-3 (Homo sapiens, UniProt P05106+P06756)
Description: Displacement of [125I]-labeled nonpeptide from purified recombinant human alphaV-beta3 integrin

in vivo [1] = details: dog, po
Description: Oral bioavailability in dog

in vivo [2] = details: dog, plasma
Description: Plasma clearance was measured in dog

in vivo [3] = details: dog
Description: Half-life was measured in dog

Chain of Integrin alpha-V/beta-3 (P05106 27-788 limits assumed): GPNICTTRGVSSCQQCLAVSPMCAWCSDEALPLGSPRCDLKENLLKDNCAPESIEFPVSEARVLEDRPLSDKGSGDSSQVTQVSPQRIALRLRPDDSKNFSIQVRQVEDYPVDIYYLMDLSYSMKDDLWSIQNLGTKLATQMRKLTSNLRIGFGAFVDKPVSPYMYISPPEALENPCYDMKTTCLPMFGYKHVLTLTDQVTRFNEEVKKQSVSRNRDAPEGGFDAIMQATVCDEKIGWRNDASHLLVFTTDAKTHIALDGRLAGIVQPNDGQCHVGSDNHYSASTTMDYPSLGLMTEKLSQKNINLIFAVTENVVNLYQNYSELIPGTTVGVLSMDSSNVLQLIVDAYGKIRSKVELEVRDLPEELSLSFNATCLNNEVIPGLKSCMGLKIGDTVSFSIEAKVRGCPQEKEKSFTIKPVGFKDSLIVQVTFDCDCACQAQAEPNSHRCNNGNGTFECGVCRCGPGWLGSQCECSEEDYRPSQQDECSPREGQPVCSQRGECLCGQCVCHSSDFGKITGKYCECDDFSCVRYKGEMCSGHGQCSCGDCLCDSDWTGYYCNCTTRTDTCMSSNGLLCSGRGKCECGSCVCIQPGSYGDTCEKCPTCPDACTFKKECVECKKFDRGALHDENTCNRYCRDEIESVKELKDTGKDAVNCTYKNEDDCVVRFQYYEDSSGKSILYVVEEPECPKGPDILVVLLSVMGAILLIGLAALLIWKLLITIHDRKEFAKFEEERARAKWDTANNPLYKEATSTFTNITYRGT
Chain of Integrin alpha-V/beta-3 (P06756 31-889 limits assumed): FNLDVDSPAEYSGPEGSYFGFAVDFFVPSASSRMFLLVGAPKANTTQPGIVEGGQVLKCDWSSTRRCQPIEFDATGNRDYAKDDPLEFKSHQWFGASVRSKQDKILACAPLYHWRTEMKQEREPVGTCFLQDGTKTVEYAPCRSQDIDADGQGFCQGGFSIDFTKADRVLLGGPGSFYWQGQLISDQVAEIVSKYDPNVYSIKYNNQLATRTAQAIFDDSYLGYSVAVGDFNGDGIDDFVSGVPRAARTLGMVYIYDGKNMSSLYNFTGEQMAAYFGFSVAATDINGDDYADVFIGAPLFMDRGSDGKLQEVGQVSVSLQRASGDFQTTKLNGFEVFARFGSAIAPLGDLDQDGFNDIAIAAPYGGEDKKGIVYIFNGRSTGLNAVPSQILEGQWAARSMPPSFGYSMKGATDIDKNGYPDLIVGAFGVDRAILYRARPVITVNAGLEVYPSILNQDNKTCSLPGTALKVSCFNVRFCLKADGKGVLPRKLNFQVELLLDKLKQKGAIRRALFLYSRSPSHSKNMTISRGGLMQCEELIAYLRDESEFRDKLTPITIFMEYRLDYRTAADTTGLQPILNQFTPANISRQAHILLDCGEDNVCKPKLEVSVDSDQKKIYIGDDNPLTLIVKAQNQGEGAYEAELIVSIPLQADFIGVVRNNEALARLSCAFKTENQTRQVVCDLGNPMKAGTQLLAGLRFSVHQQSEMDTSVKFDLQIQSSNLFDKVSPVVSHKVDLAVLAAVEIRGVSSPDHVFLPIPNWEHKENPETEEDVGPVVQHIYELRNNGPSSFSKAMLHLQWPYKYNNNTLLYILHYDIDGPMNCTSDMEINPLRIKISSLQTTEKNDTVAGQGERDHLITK
Chain of Integrin alpha-V/beta-3 (P06756 891-1048 limits assumed): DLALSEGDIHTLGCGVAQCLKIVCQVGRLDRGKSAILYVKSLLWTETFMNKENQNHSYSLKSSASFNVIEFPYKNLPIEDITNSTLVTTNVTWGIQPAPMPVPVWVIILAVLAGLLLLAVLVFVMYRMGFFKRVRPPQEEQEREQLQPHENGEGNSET

Row | Compound | logP (physchem) | IC50 (Integrin alpha-V/beta-3) | bioavailability (in vivo [1]) | clearance (in vivo [2]) | half-life (in vivo [3])
1 | O=C(O)C[C@H](NC(=O)CCCCc1ccc2c(n1)NCCC2)c1cnc2ccccc2c1 | 0.77 | – | – | – | –
2 | O=C(O)C[C@@H](c1ccc2c(c1)OCC2)N1CC[C@H](CCCc2ccc3c(n2)NCCC3)C1=O | -0.12 | 0.22 nM | 11.5% | 22.9 mL/min/kg | 90 min
3 | O=C(O)C[C@@H](c1ccc2c(c1)OCC2)N1CC[C@@H](CCCc2ccc3c(n2)NCCC3)C1=O | 0.88 | 0.39 nM | 52% | 2.1 mL/min/kg | 480 min
